This note sets out measurements from paper PMC4490227, “Identification of Glycyrrhiza as the rikkunshito constituent with the highest antagonistic potential on heterologously expressed 5-HT3A receptors due to the action of flavonoids” (Frontiers in Pharmacology, 2015).

Like-named read-outs stand apart in the source and are kept apart here.

This assay addresses T1, human 5-HT3A receptors (Homo sapiens, UniProt P46098).
T1 sequence (P46098 24-478): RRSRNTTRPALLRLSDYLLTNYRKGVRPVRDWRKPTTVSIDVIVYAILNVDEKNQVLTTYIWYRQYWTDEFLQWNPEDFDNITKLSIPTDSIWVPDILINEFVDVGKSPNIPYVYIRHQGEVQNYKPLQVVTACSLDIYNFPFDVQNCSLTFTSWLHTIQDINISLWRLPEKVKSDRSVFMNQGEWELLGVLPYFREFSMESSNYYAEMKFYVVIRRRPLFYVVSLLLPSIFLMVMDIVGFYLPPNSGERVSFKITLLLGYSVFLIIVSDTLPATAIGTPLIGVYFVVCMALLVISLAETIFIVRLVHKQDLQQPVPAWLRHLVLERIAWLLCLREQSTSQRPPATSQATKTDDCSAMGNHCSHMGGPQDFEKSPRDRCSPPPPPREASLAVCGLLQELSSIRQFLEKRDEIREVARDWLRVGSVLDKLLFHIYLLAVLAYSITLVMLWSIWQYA
The assay is described as follows: Two-electrode voltage-clamp: modulation of 5-HT-induced currents at 5-HT3A receptors heterologously expressed in Xenopus laevis oocytes. On the set-up: key to mode of antagonism: c, apparently competitive; nc, non-competitive. To be noted: for IC50: read-out: IC50 of substances; for synergistic effects between different herbal 5-HT3A receptor antagonists: pairs: 6-gingerol and citronellol, hesperetin and 6-shogaol (Supplementary Figure 3); for inhibition of the 5-HT3A receptor response by solvent: solvent 1.0 Vol.-%. In kind it is cell-based. As for the experimental part:
The expression plasmid contains the cDNA coding for the 5-HT3A protein in pcDNA3 (Invitrogen) (Lobitz et al., [2001]). cRNAs were prepared using the AmpliCap T7 high-yield message marker kit (Epicenter, Madison, WI, USA), following the manufacturer's protocol. Xenopus laevis oocytes were obtained as previously described (Sherkheli et al., [2010]) and injected with a total amount of 7–20 ng of the receptor-coding cRNA using an injection-setup from WPI (Nanoliter 2000, Micro4). The injected oocytes were stored in ND 96 (96.0 mM NaCl, 2.0 mM KCl, 1.8 mM CaCl2, 1.0 mM MgCl2, 5.0 mM HEPES, pH 7.2, 200 U/ml penicillin, and 200 μg/ml streptomycin) at 17°C. Measurements were performed one to 5 days after cRNA injection.
The electrophysiological recordings were performed using the two-electrode voltage-clamp technique as previously described (Saras et al., [2008]). All of the measurements were performed in normal frog ringer (NFR) [115 mM NaCl, 2.5 mM KCl, 1.8 mM CaCl2, 10 mM HEPES; pH 7.2 (NaOH/HCl)] containing niflumic acid (NA) (100 μM) to block the Ca^2+-induced currents mediated by the intrinsic chloride channel (TMEM16A) or under Ca^2+-free conditions [115 mM NaCl, 2.5 mM KCl, 1.8 mM MgCl2, 10 mM HEPES; pH 7.2 (NaOH/HCl)]. All of the substances were applied after preincubation (30 s). The currents were recorded at a holding potential of typically −60 mV using the Cell Works 6.1.1. software (NPI).
As a control, we tested the competitive antagonists ondansetron (1 nM) and d-tubocurarine (20 μM) (Hope et al., [1996]) and the non-competitive antagonist picrotoxin (50 μM) (Das and Dillon, [2005]). […] Nevertheless, a definitive differentiation between competitive, allosteric, and concentration-dependent antagonists must be performed using ligand binding assays.
The concentration-response data were fitted with the Hill equation with variable slope using SigmaPlot 8.0 (SPSS). Thereby, the calculation of the EC50 and IC50-values was done. The deviations are represented by the standard error of the mean (SEM). The datasets were tested for statistically significant differences through Student's t-test using Excel 2010 (Microsoft) (^*p < 0.05; ^**p < 0.005; ^***p < 0.0005). For multiple comparisons, the significance levels were corrected via Bonferroni-correction.
A general note: Two-electrode voltage clamp is typically applied to oocytes expressing channels or transporters.

[1] abbreviates: from comparison of inhibition at 2.5 and 30 μM 5-HT.
[2] abbreviates: read-out: Mean inhibition ± SEM [%] 5-HT [2.5 μM].
Setting [3] is: read-out: Mean inhibition ± SEM [%] 5-HT [30 μM].
Setting [4] is: substance 1 mM (Figure 2A), read-out: 5-HT3A receptor inhibition by the substances (screening).
Where [5] appears, read: inhibition at 2.5 vs 30 μM 5-HT.

`C=C1CCC[C@]2(C)C[C@]3(O)OC(=O)C(C)=C3C[C@@H]12` [Atractylenolide III, atractylenolide III]: the IC50 came out at 1320 ± 145 µM. Besides, the mode of antagonism entry under setting [1] is “ns/nc”. Besides, the inhibition at 1000 µM under setting [2] is 55 ± 6.2%. The inhibition at 1000 µM under setting [3] is 57.8 ± 6%.
Regarding `CCCCC/C=C/C(=O)CCc1ccc(O)c(OC)c1` [6-shogaol], the “synergistic effects between different herbal 5-HT3A receptor antagonists” value is listed as “synergistic”.
With `CC1(C)[C@@H](O[C@H]2O[C@H](C(=O)O)[C@@H](O)[C@H](O)[C@H]2O[C@@H]2O[C@H](C(=O)O)[C@@H](O)[C@H](O)[C@H]2O)CC[C@]2(C)[C@H]3C(=O)C=C4[C@@H]5C[C@@](C)(C(=O)O)CC[C@]5(C)CC[C@@]4(C)[C@]3(C)CC[C@@H]12` [Glycyrrhizin, glycyrrhizin], the inhibition at 1000 µM under setting [4] was -3.1 ± 4.3%.
Take `CCCCC[C@H](O)CC(=O)CCc1ccc(O)c(OC)c1` [6-gingerol]: the “synergistic effects between different herbal 5-HT3A receptor antagonists” value is on record as “synergistic”.
As to `COc1ccc([C@@H]2CC(=O)c3c(O)cc(O[C@@H]4O[C@H](CO[C@@H]5O[C@@H](C)[C@H](O)[C@@H](O)[C@H]5O)[C@@H](O)[C@H](O)[C@H]4O)cc3O2)cc1O` [Hesperidin, hesperidin], the “5-HT3A receptor inhibition by the substances (screening)” value (shortened to “5-HT3A receptor inhibition”) is, setting by setting: (substance 1 mM (Figure 2A)) “no effect”; (substance 1 mM (Figure 2A), listed as hesperidin) −2.6 ± 5.3%.
Regarding picrotoxin [reference compound], the mode of antagonism result under setting [1] is recorded as “ns/nc”. For the same molecule, for the setting “substance 50 μM, 5-HT 2.5 μM, 30 s preincubation”, the “Mean inhibition ± SEM [%] 5-HT [2.5 μM]” value worked out at 72.5 ± 3.7%. Further, the “Mean inhibition ± SEM [%] 5-HT [30 μM]” value (substance 50 μM, 5-HT 30 μM, 30 s preincubation) amounted to 73.0 ± 2.8%.
In the case of `CC1(C)C=Cc2c(ccc3c2OC[C@@H](c2ccc(O)cc2O)C3)O1` [Glabridin, glabridin], the IC50 came out at 28 ± 2.8 µM. Besides, the mode of antagonism result under setting [1] is “^***/c”. For the same molecule, under setting [5], the “mode of antagonism” value was “apparent competitive antagonism”. The inhibition at 100 µM under setting [2] worked out at 64.7 ± 2.1%. Besides, the inhibition at 100 µM under setting [3] came out at 17.3 ± 2.3%. For the same molecule, the inhibition at 100 µM (substance 100 μM (Figure 2A), read-out: 5-HT3A receptor inhibition by the substances (screening)) came to 62.8 ± 2.1%.
On to `CCO` [Ethanol, ethanol], for which the “inhibition of the 5-HT3A receptor response by solvent” value came out at 14.1 ± 2.6%.
With `COc1ccc([C@@H]2CC(=O)c3c(O)cc(O)cc3O2)cc1O` [Hesperetin, hesperetin], the “synergistic effects between different herbal 5-HT3A receptor antagonists” value is listed as “synergistic” and the IC50 amounted to 218 ± 38 µM. Further, under setting [1], the mode of antagonism result was “ns/nc”. Further, the inhibition at 1000 µM under setting [2] turned out to be 77.3 ± 9%. Under setting [3], the inhibition at 1000 µM was determined as 79.7 ± 6.1%. Under “substance 1 mM (Figure 2A)”, the “5-HT3A receptor inhibition” value was “antagonistic effects”. The inhibition at 1000 µM under setting [4] came to 66.6 ± 9.3%.
Regarding `C[C@@H]1O[C@@H](OC[C@H]2O[C@@H](Oc3c(-c4ccc(O)c(O)c4)oc4cc(O)cc(O)c4c3=O)[C@H](O)[C@@H](O)[C@@H]2O)[C@H](O)[C@H](O)[C@H]1O` [rutin], the “5-HT3A receptor inhibition” value (substance 1 mM (Figure 2A)) was “antagonistic effects”. For the same molecule, the inhibition at 1000 µM under setting [4] was determined as 57 ± 6.1%.
`O=C1C[C@@H](c2ccc(O)cc2)Oc2cc(O)ccc21` [(-)-liquiritigenin]: the IC50 came to 210 ± 25 µM. The mode of antagonism entry under setting [1] was “^*/nc”. For the same molecule, the “mode of antagonism” value under setting [5] is recorded as “non-competitive”. Moreover, under setting [2], the inhibition at 500 µM was 84.5 ± 2.4%. Further, under setting [3], the inhibition at 500 µM is 93.5 ± 0.5%. The inhibition at 1000 µM under setting [4] amounted to 92.8 ± 2.2%.
Take `COc1cc2c3cc1Oc1cc(ccc1O)C[C@@H]1c4c(cc(OC)c(O)c4Oc4ccc(cc4)C[C@@H]3N(C)CC2)CC[N+]1(C)C` [D-tubocurarine, d-tubocurarine, reference compound]: under setting [1], the mode of antagonism result is on record as “^**/c”. The inhibition at 20 µM under setting [2] was found to be 82 ± 3.5% and the inhibition at 20 µM under setting [3] was found to be 45.9 ± 4.8%.
As for `C[S+](C)[O-]` [DMSO, dimethyl sulfoxide], the “inhibition of the 5-HT3A receptor response by solvent” value was determined as 29.1 ± 4.7%.
Take `CC(C)=CCCC(C)CCO` (centres unmarked) [citronellol]: the “synergistic effects between different herbal 5-HT3A receptor antagonists” value is “synergistic”.
As to `C=CC(C)(C)c1cc(/C=C/C(=O)c2ccc(O)cc2)c(OC)cc1O` [Licochalcone A, licochalcone A], the “direct activation of 5-HT3A receptors” value is given as “absence of the direct activation” and the IC50 was 14.4 ± 1.3 µM. Besides, for the setting “5 μM 5-HT”, the residual current remaining result is reported as “approximately 40%”. The mode of antagonism result under setting [1] is given as “^*/c”. Further, the “mode of antagonism” value under setting [5] is “apparent competitive antagonism”. Further, the inhibition at 1000 µM under setting [2] is 76.1 ± 6.1%. In addition, under setting [3], the inhibition at 1000 µM was determined as 58.7 ± 2.6%. Under setting [4], the inhibition at 1000 µM came to 70.6 ± 3.1%.
`Cc1nccn1CC1CCc2c(c3ccccc3n2C)C1=O` (centres unmarked) [Ondansetron, ondansetron, reference compound]: the mode of antagonism entry under setting [1] is reported as “^*/c”. Further, the inhibition at 0.001 µM is, setting by setting: under setting [2], 82.4 ± 3.4%; under setting [3], 57.9 ± 5.3%.

The term IC50 denotes the concentration that inhibits the measured activity by half. By inhibition is commonly meant the drop in the measured response relative to a control, in per cent.
